Data from patent publication US20060088583A1, “Artificial oxygen carrier containing preventive agents of metHb formation” (Oxygenix Co., Ltd., priority 2004, published 2006).

Tests used:
[1] = target: T1, hemoglobin vesicle (methemoglobin formation) (Homo sapiens, UniProt P68871+P69905); experiment: Autoxidation of hemoglobin vesicle in the atmospheric air (37° C.), rate of methemoglobin from absorbance ratio 405/430 nm; format: biochemical; details: for Time required for 50% metHb formation: control 34.0; for Initial rate of metHb formation: control 1.3; for effect to inhibit methemoglobin formation (FIG. 1): encapsulated in hemoglobin vesicle, same manner as Example 1
T1 construct: obtained by purification of human red cells derived from the donated blood; from tissue; host or cells: human red cells from donated blood
T1 sequence (P69905 2-142 limits assumed): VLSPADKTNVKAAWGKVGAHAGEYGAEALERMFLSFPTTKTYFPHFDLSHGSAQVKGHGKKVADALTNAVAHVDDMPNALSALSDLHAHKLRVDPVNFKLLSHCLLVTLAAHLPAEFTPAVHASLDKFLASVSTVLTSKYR
T1 sequence (P68871 2-147 limits assumed): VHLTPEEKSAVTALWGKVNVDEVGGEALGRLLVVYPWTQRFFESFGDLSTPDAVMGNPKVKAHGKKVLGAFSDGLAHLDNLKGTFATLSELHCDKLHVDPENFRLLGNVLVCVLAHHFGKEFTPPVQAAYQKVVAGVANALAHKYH
Method: Otherwise, such components were not added to the above hemoglobin solution. Thereafter, using Remolino™ (manufactured by Millipore Japan), each of the obtained mixtures was filtrated through an FM microfilter with a pore size of 0.22 μm (manufactured by Fuji Photo Film Co., Ltd.), so as to obtain a processed hemoglobin solution. Mixed lipid powders (a mixture consisting of phosphatidylcholine, cholesterol, and DPEA; manufactured by Nippon Fine Chemical) were added, little by little, to the hemoglobin solution, resulting in the concentration of lipid of 4.5 wt %. The mixture was then stirred at 4° C. for 12 hours, so as to obtain a multilayer vesicle, in which hemoglobin had been encapsulated. The particle diameter and the number of coating layers were regulated by the extrusion method using Remolino. The FM microfilters were used in the order of pore sizes of 3, 0.8, 0.65, 0.45, 0.3, and 0.22 μm. The obtained hemoglobin vesicle dispersion was diluted with a saline solution. The diluted solution was subjected to ultracentrifugation (50,000 g, 40 minutes), and the supernatant hemoglobin solution was then eliminated by aspiration. Thereafter, a polyoxyethylene-binding lipid [N-(monomethoxy polyethylene glycol-carbamyl)distearoyl phosphatidyl ethanolamine; the molecular weight of the polyethylene glycol chain: 5,300] dispersed in a saline solution was added thereto, at an amount corresponding to 0.3 mol % of the lipid on the outer surface of the vesicle. The mixture was stirred at 25° C. for 2 hours, so as to modify the surface of the hemoglobin vesicle with polyethylene glycol. The concentration of hemoglobin was set at 10 g/dL, and the mixed solution was then filtrated through a 0.45-μm filter (Dismic-25; […]), so as to obtain a polyethylene glycol-modified hemoglobin vesicle.
Each sample was collected over time. Thereafter, the rate of methemoglobin was calculated from the ratio of the absorbance of the hemoglobin vesicle solution at 405 nm to that of at 430 nm.
A hemoglobin vesicle dispersion containing each of a tyrosine derivative, various types of antioxidants, and various types of phenol derivatives, at certain concentrations, was produced. Thereafter, the rate of methemoglobin formation was measured in the same manner as in Example 1.
Thereafter, the rate of 50% methemoglobin formation was measured in the same manner as in Example 1.
Thereafter, the time required for 50% methemoglobin formation was measured in the same manner as in Example 1.

[2] = target: T1, hemoglobin vesicle (methemoglobin formation); experiment: Autoxidation of hemoglobin vesicle in the atmospheric air (4° C.), chilled storage; format: biochemical; details: [L-tyrosine]=1 mM
Method: As a result, a slight amount of dityrosine was confirmed. Thereafter, this experiment was performed on a mixture obtained by adding hydrogen peroxide to a methemoglobin solution containing L-tyrosine. As a result, a large amount of dityrosine was confirmed. This is because of the peroxidase activity of methemoglobin. Thereafter, the change in methemoglobin concentration was observed during chilled storage (4° C.).
Each sample was collected over time. Thereafter, the rate of methemoglobin was calculated from the absorbance ratio. […] 1 month later, the rate of methemoglobin were 4.4% and 9.3%, respectively. 3 months later, they were 10.2% and 24.3%, respectively.

[3] = target: hemoglobin solution in an oxy state (methemoglobin formation) (Homo sapiens, UniProt P68871+P69905); experiment: Repeated addition of hydrogen peroxide to oxyhemoglobin solution, cyanomethemoglobin method; format: biochemical; details: 60 minutes; 310 μM hydrogen peroxide every 10 minutes, 37° C., air; 5 g/dL oxyhemoglobin; 0.5 wt % methemoglobin and/or 1 mM L-tyrosine
Chain of hemoglobin solution in an oxy state (methemoglobin formation) (P69905 2-142 limits assumed): as the sequence (P69905 2-142 limits assumed) above
Chain of hemoglobin solution in an oxy state (methemoglobin formation) (P68871 2-147 limits assumed): as the sequence (P68871 2-147 limits assumed) above
Method: Thereafter, 310 μM hydrogen peroxide (the same concentration as that of heme in methemoglobin) was added to the above solution, every 10 minutes, for 60 minutes in the atmospheric air at 37° C., while stirring. 300 μl of a sample was collected immediately before addition of each hydrogen peroxide, and 20 μl of catalase (5,000 units) was promptly added to each sample, so as to eliminate the hydrogen peroxide. Thereafter, the rate of methemoglobin was calculated by the cyanomethemoglobin method.

[4] = target: T2, hemoglobin (Homo sapiens, UniProt P68871+P69905); experiment: Isothermal titration microcalorimetry of L-tyrosine with hemoglobin; format: binding
T2 sequence (P69905 2-142 limits assumed): as the sequence (P69905 2-142 limits assumed) above
T2 sequence (P68871 2-147 limits assumed): as the sequence (P68871 2-147 limits assumed) above

[5] = target: T2, hemoglobin; experiment: Oxygen dissociation curve of hemoglobin mixed with L-tyrosine; format: biochemical
[6] = Maximum dissolvable concentration of L-tyrosine; format: physicochemical

Compound	Time required for 50% metHb formation ([1]; Table 1, concentration 1 mM) [h]	Initial rate of metHb formation ([1]; concentration 1 mM) [% hr]	Time required for 50% metHb formation ([1]; Table 1, concentration 0.1 mM) [h]	Time required for 50% metHb formation ([1]; Table 1, concentration 3 mM) [h]	Initial rate of metHb formation ([1]; concentration 0.1 mM) [% hr]	Initial rate of metHb formation ([1]; concentration 3 mM) [% hr]	other results
O=c1c(O)c(-c2ccc(O)cc2)oc2cc(O)cc(O)c12 [Kaempferol]	25.0	3.1	–	–	–	–	–
3,4-dihydroxyphenol-L-alanine	14.4	3.4	30.8	8.2	1.4	5.3	–
N[C@H](Cc1ccc(O)cc1)C(=O)O [D-tyrosine]	–	–	–	–	–	–	effect to inhibit methemoglobin formation (FIG. 1) [1]: does not have such an effect of inhibiting methemoglobin formation
N[C@@H](Cc1ccc(O)cc1)C(=O)O [L-tyrosine]	52.0	0.9	–	–	–	–	Time required for 50% metHb formation ([1]; Table 1, concentration 0.25 mM): 42.0 h; Time required for 50% metHb formation ([1]; Table 1, concentration 0.5 mM): 48.0 h; Time required for 50% metHb formation ([1]; Table 2, concentration 0.25 mM): 42.0 h; Initial rate of metHb formation ([1]; concentration 0.25 mM): 1.1 % hr; Initial rate of metHb formation ([1]; concentration 0.5 mM): 1.0 % hr; effect to inhibit methemoglobin formation (FIG. 1) [1]: inhibits methemoglobin formation; rate of methemoglobin ([2]; 4° C., 1 month later, no L-tyrosine: 9.3%): 4.4%; rate of methemoglobin ([2]; 4° C., 3 months later, no L-tyrosine: 24.3%): 10.2%; rate of methemoglobin ([2]; when prepared, no L-tyrosine: 3.0%): 3.0%; rate of methemoglobin [3]: approximately 80%; heat of binding with hemoglobin [4]: almost no heat of binding was observed; change in the degree of oxygen affinity [5]: no change in the degree of oxygen affinity was observed; influence upon the allosteric effect [5]: no particular influence upon the allosteric effect was found; maximum concentration that can be dissolved [6]: approximately 20 mM
O=c1cc(-c2ccc(O)cc2)oc2cc(O)cc(O)c12 [Apigenin]	35.6	1.4	34.8	–	1.6	–	–
L-Tyr-L-Tyr	–	–	–	–	–	–	Time required for 50% metHb formation ([1]; Table 2, concentration 0.1 mM): 32.0 h; Time required for 50% metHb formation ([1]; Table 2, concentration 0.25 mM): 32.0 h
Catalase	–	–	–	–	–	–	Time required for 50% metHb formation ([1]; Table 2, concentration 50000 unit/mL): 45.0 h
O=C(O[C@@H]1Cc2c(O)cc(O)cc2O[C@@H]1c1cc(O)c(O)c(O)c1)c1cc(O)c(O)c(O)c1 [Epigallocatechin gallate]	12.4	3.4	–	13.0	–	3.2	Time required for 50% metHb formation ([1]; Table 1, concentration 2 mM): 13.6 h; Initial rate of metHb formation ([1]; concentration 2 mM): 3.2 % hr
Oc1ccccc1 [Phenol]	33.2	1.3	35.6	–	1.1	–	–
O=C(O)Cc1ccc(O)cc1 [p-hydroxyphenyl acetic acid]	30.2	1.7	30.6	28.3	1.5	1.8	–
L-Tyr-L-Glu	–	–	–	–	–	–	Time required for 50% metHb formation ([1]; Table 2, concentration 0.1 mM): 33.0 h; Time required for 50% metHb formation ([1]; Table 2, concentration 0.25 mM): 33.0 h
O=C(O)CCc1ccc(O)cc1 [3-(p-hydroxyphenyl)pronionic acid, 3-(p-hydroxy-phenyl)pronionic acid]	32.2	1.0	–	34.2	–	1.2	Time required for 50% metHb formation ([1]; Table 1, concentration not given): 34.7 h; Initial rate of metHb formation ([1]; concentration not given): 0.9 % hr
